From patent publication US20180256673A1, “METHODS FOR TREATING FUNGAL INFECTIONS” (priority 2015, published 2018)
Converted amounts (≈) assume the structure as drawn. Like-named read-outs stand apart in the source and are kept apart here. Starred links: 1 amine or outer side, 2 acyl side, 3 side chain; linkers in the order of their positions; H or OH if unused. Positions of bridges follow the written chain, without caps; N, C: chain ends. Non-standard residues stand in square brackets, D forms with d. Residues, ends and D or L forms follow the SMILES beside them. *: point of attachment. pTerphenylCO(4''-OnC5H11) = CCCCCOc1ccc(-c2ccc(-c3ccc(C(=O)*)cc3)cc2)cc1; Orn(4R-OH,5R-OH) = O=C([C@H](C[C@@H](O)[C@@H](O)N[*:3])N[*:1])[*:2]; hTyr(3S-OH,4S-OH) = N[C@H](C(=O)O)[C@H](O)[C@@H](O)c1ccc(O)cc1; Pro(3S-OH,4S-Me) = C[C@H]1CN[C@H](C(=O)O)[C@H]1O; Hyp = O=C(O)[C@@H]1C[C@@H](O)CN1

How the values were obtained:
Candida albicans = test: Broth microdilution of invasive fungal isolates (CLSI M27-A3/M38-A2); assay type: cell-based
[1] = system: Cryptococcus neoformans var. grubii; test: as above; assay type: cell-based
C. krusei ATCC 6258 = test: Broth microdilution MIC (CLSI), Examples 3 and 4; conditions: Pichia kudriavzevii, ATCC6258, 24 h, read-out: Broth MIC
Protocol: Antifungal susceptibility testing. Candida strains were cultured aerobically at 35° C. on SDA plates or in RPMI 1640 broth (pH 7.0). […] MIC assays were performed in triplicate.

Candida parapsilosis = test: Broth microdilution of invasive fungal isolates (CLSI M27-A3/M38-A2); assay type: cell-based
Candida orthopsilosis = test: as above; assay type: cell-based
C. albicans NRRL Y-477 = test: Broth microdilution MIC (CLSI), Examples 3 and 4; conditions: Candida albicans
Protocol: Antifungal susceptibility testing. […] MIC assays were performed in triplicate.

Candida tropicalis = test: Broth microdilution of invasive fungal isolates (CLSI M27-A3/M38-A2); assay type: cell-based
[2] = system: C. tropicalis vaginal isolates; test: Susceptibility testing of VVC clinical isolates at pH 7 and 4 (CLSI M27-A3); assay type: cell-based; conditions: Candida tropicalis
[3] = system: C. glabrata vaginal isolates; test: as above; assay type: cell-based, Candida glabrata; conditions: Nakaseomyces glabratus

For `CCCCCOc1ccc(-c2ccc(-c3ccc(C(=O)N[C@H]4C[C@@H](O)[C@@H](O)NC(=O)[C@@H]5[C@@H](O)[C@@H](C)CN5C(=O)[C@H]([C@@H](C)O)NC(=O)[C@H]([C@H](O)[C@@H](O)c5ccc(O)cc5)NC(=O)[C@@H]5C[C@@H](O)CN5C(=O)[C@H]([C@@H](C)O)NC4=O)cc3)cc2)cc1` [ANID, anidulafungin] ({pTerphenylCO(4''-OnC5H11)}-[Orn(4R-OH,5R-OH)]T[Hyp][hTyr(3S-OH,4S-OH)]T[Pro(3S-OH,4S-Me)]; lactam 1-C), which “Cumulative % of isolates inhibited at MIC 0.015 μg/mL” value (Candida albicans; 251 isolates) is on record?
The value was “(67.7) %”.

And the “Cumulative % of isolates inhibited at MIC 0.03 μg/mL” value (Candida albicans; 251 isolates)?
The value was “(89.2) %”.

What about the “Cumulative % of isolates inhibited at MIC 0.06 μg/mL” value (Candida albicans; 251 isolates) of the same compound?
The value was “(98.0) %”.

What about the “Cumulative % of isolates inhibited at MIC 0.12 μg/mL” value (Candida albicans; 251 isolates) of the same compound?
The value was “(100.0) %”.

And the “Cumulative % of isolates inhibited at MIC ≤0.008 μg/mL” value (Candida albicans; 251 isolates)?
Its value is “(27.5) %”.

And the “Number of isolates inhibited at MIC 0.015 μg/mL” value (Candida albicans; 251 isolates)?
The value was 101.

What about the “Number of isolates inhibited at MIC 0.03 μg/mL” value (Candida albicans; 251 isolates) of the same compound?
Its value is 54.

What about the “Number of isolates inhibited at MIC 0.06 μg/mL” value (Candida albicans; 251 isolates) of the same compound?
The value was 22.

What about the “Number of isolates inhibited at MIC 0.12 μg/mL” value (Candida albicans; 251 isolates) of the same compound?
The value was 5.

And the “Number of isolates inhibited at MIC ≤0.008 μg/mL” value (Candida albicans; 251 isolates)?
The value was 69.

What about the MIC50 (Candida albicans; Candida albicans) of the same compound?
The MIC50 was 0.015 µg/mL (≈ 0.0132 µM).

What about the MIC90 (Candida albicans; Candida albicans) of the same compound?
The MIC90 was 0.06 µg/mL (≈ 0.0526 µM).

And the “Cumulative % of isolates inhibited at MIC >8 μg/mL” value ([1]; 19 isolates)?
Its value is “(100.0) %”.

And the “Number of isolates inhibited at MIC >8 μg/mL” value ([1]; 19 isolates)?
The value was 19.

What about the MIC50 ([1]; Cryptococcus neoformans) of the same compound?
Its MIC50 is 8 µg/mL (≈ 7.02 µM).

What about the MIC90 ([1]; Cryptococcus neoformans) of the same compound?
Its MIC90 is 8 µg/mL (≈ 7.02 µM).

What about the MIC (C. krusei ATCC 6258) of the same compound?
Its MIC is 0.06 µg/mL (≈ 0.0526 µM).

What about the “Cumulative % of isolates inhibited at MIC 0.5 μg/mL” value (Candida parapsilosis; 92 isolates) of the same compound?
Its value is “(4.3) %”.

What about the “Cumulative % of isolates inhibited at MIC 1 μg/mL” value (Candida parapsilosis; 92 isolates) of the same compound?
The value was “(34.8) %”.

And the “Cumulative % of isolates inhibited at MIC 2 μg/mL” value (Candida parapsilosis; 92 isolates)?
Its value is “(82.6) %”.

What about the “Cumulative % of isolates inhibited at MIC 4 μg/mL” value (Candida parapsilosis; 92 isolates) of the same compound?
Its value is “(100.0) %”.

What about the “Number of isolates inhibited at MIC 0.5 μg/mL” value (Candida parapsilosis; 92 isolates) of the same compound?
Its value is 4.

What about the “Number of isolates inhibited at MIC 1 μg/mL” value (Candida parapsilosis; 92 isolates) of the same compound?
The value was 28.

What about the “Number of isolates inhibited at MIC 2 μg/mL” value (Candida parapsilosis; 92 isolates) of the same compound?
The value was 44.

What about the “Number of isolates inhibited at MIC 4 μg/mL” value (Candida parapsilosis; 92 isolates) of the same compound?
Its value is 16.

And the MIC50 (Candida parapsilosis; Lodderomyces parapsilosis)?
The MIC50 was 2 µg/mL (≈ 1.75 µM).

What about the MIC90 (Candida parapsilosis; Lodderomyces parapsilosis) of the same compound?
The MIC90 was 4 µg/mL (≈ 3.51 µM).

What about the “Cumulative % of isolates inhibited at MIC 0.25 μg/mL” value (Candida orthopsilosis; 10 isolates) of the same compound?
Its value is “(30.0) %”.

And the “Cumulative % of isolates inhibited at MIC 0.5 μg/mL” value (Candida orthopsilosis; 10 isolates)?
The value was “(50.0) %”.

And the “Cumulative % of isolates inhibited at MIC 1 μg/mL” value (Candida orthopsilosis; 10 isolates)?
Its value is “(90.0) %”.

What about the “Cumulative % of isolates inhibited at MIC 2 μg/mL” value (Candida orthopsilosis; 10 isolates) of the same compound?
The value was “(100.0) %”.

And the “Number of isolates inhibited at MIC 0.25 μg/mL” value (Candida orthopsilosis; 10 isolates)?
Its value is 3.

And the “Number of isolates inhibited at MIC 0.5 μg/mL” value (Candida orthopsilosis; 10 isolates)?
Its value is 2.

And the “Number of isolates inhibited at MIC 1 μg/mL” value (Candida orthopsilosis; 10 isolates)?
Its value is 4.

What about the “Number of isolates inhibited at MIC 2 μg/mL” value (Candida orthopsilosis; 10 isolates) of the same compound?
The value was 1.

What about the MIC50 (Candida orthopsilosis; Lodderomyces orthopsilosis) of the same compound?
Its MIC50 is 0.5 µg/mL (≈ 0.438 µM).

And the MIC90 (Candida orthopsilosis; Lodderomyces orthopsilosis)?
The MIC90 was 1 µg/mL (≈ 0.877 µM).

What about the MIC (C. albicans NRRL Y-477; NRRLY477) of the same compound?
Its MIC is 0.25 µg/mL (≈ 0.219 µM).

What about the MIC (C. albicans NRRL Y-477; NRRLY477, 24 h, read-out: Broth MIC) of the same compound?
The MIC was 0.015 µg/mL (≈ 0.0132 µM).

What about the “Cumulative % of isolates inhibited at MIC 0.015 μg/mL” value (Candida tropicalis; 51 isolates) of the same compound?
Its value is “(62.7) %”.

And the “Cumulative % of isolates inhibited at MIC 0.03 μg/mL” value (Candida tropicalis; 51 isolates)?
Its value is “(98.0) %”.

What about the “Cumulative % of isolates inhibited at MIC 0.06 μg/mL” value (Candida tropicalis; 51 isolates) of the same compound?
Its value is “(100.0) %”.

What about the “Cumulative % of isolates inhibited at MIC ≤0.008 μg/mL” value (Candida tropicalis; 51 isolates) of the same compound?
Its value is “(9.8) %”.

And the “Number of isolates inhibited at MIC 0.015 μg/mL” value (Candida tropicalis; 51 isolates)?
Its value is 27.

And the “Number of isolates inhibited at MIC 0.03 μg/mL” value (Candida tropicalis; 51 isolates)?
Its value is 18.

What about the “Number of isolates inhibited at MIC 0.06 μg/mL” value (Candida tropicalis; 51 isolates) of the same compound?
Its value is 1.

What about the “Number of isolates inhibited at MIC ≤0.008 μg/mL” value (Candida tropicalis; 51 isolates) of the same compound?
Its value is 5.

What about the MIC50 (Candida tropicalis; Candida tropicalis) of the same compound?
Its MIC50 is 0.015 µg/mL (≈ 0.0132 µM).

What about the MIC90 (Candida tropicalis; Candida tropicalis) of the same compound?
Its MIC90 is 0.03 µg/mL (≈ 0.0263 µM).

What about the MIC90 ([2]; 24 h, pH 4) of the same compound?
The MIC90 was 0.125 µg/mL (≈ 0.11 µM).

And the MIC90 ([2]; 24 h, pH 7)?
Its MIC90 is 0.03 µg/mL (≈ 0.0263 µM).

What about the MIC90 ([2]; 48 h, pH 4) of the same compound?
Its MIC90 is 0.5 µg/mL (≈ 0.438 µM).

What about the MIC90 ([2]; 48 h, pH 7) of the same compound?
Its MIC90 is 0.06 µg/mL (≈ 0.0526 µM).

What about the MIC90 ([3]; 24 h, pH 4) of the same compound?
Its MIC90 is 0.125 µg/mL (≈ 0.11 µM).

What about the MIC90 ([3]; 24 h, pH 7) of the same compound?
Its MIC90 is 0.03 µg/mL (≈ 0.0263 µM).

And the MIC90 ([3]; 48 h, pH 4)?
The MIC90 was 0.25 µg/mL (≈ 0.219 µM).

What about the MIC90 ([3]; 48 h, pH 7) of the same compound?
The MIC90 was 0.06 µg/mL (≈ 0.0526 µM).
